How the values were obtained:
[1] = target: Recombinant SHP-1 protein (Homo sapiens, UniProt P29350); assay: SHP-1 phosphatase activity assay (RediPlate 96 EnzChek Tyrosine Phosphatase Assay kit); format: biochemical; settings: SC derivatives at 1 μM for 2 hr; recombinant SHP-1 25 ng; control DMSO = 100; mean±SD (N=3)
Description: Effects of SC Derivatives on Phosphatase Activity in Recombinant SHP-1 RediPlate 96 EnzChek Tyrosine Phosphatase Assay kit (R-22067) was used for SHP-1 activity assay (Molecular Probes). Recombinant SHP-1 protein (25 ng) was reacted with SC derivatives at 1 μM for 2 hr. Then the SHP-1 phosphatase activity assay was performed according to the user's manual and the absorbance was measured at 465 nm. The control group was DMSO, which functioned as the solvent of the SC derivatives. The values were expressed by mean±SD (N=3).

[2] = system: PLC5 cells (a hepatocellular carcinoma cell line); assay: Cytotoxicity, MTT cell viability assay; format: cell-based; settings: 72 h exposure
Description: PLC5 cells (a hepatocellular carcinoma cell line) were seeded at 5×10^3 cells per well in 96-well plates. Then, cells were exposed to SC derivatives at the indicated doses for 72 h. After that, cells were incubated with MTT (1 mg/ml) (Sigma-Aldrich, St. Louis, Mo.) for 2 h at 37° C. Cell viability was then assessed by measuring the absorbance at 570 nm using a microplate reader.

Recombinant SHP-1 protein, sequence (P29350 whole entry): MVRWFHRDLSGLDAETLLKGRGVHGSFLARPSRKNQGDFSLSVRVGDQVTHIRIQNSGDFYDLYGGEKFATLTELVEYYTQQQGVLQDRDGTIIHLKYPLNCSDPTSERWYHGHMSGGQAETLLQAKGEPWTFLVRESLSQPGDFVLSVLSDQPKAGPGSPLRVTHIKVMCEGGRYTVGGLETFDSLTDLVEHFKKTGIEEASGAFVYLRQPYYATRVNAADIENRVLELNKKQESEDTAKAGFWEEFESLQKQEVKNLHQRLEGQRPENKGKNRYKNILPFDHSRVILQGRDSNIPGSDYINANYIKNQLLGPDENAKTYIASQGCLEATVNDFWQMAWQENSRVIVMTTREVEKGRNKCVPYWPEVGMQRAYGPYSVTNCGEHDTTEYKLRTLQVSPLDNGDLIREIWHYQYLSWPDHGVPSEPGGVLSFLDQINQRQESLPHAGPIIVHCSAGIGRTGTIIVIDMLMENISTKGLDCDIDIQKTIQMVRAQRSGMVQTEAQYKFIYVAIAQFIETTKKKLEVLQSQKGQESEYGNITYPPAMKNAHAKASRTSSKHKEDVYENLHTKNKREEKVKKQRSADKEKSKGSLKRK

| SMILES | SHP-1 Activity (% of control) [1] | IC50 [2] [nM] |
| --- | --- | --- |
| C#Cc1cccc(NC(=O)Nc2cccc(Oc3ccc(C#N)cc3)c2)c1 [compound 65, 1-(3-(4-cyanophenoxy)phenyl)-3-(3-ethynylphenyl)urea] | 84.35 ± 22.40 % of control | 1410 |
| C#Cc1cccc(NC(=O)Nc2ccc(C)c(Oc3ccc(C#N)cc3)c2)c1 [compound 66, 1-(3-(4-cyanophenoxy)-4-methylphenyl)-3-(3-ethynylphenyl)urea] | 93.26 ± 9.30 % of control | > 10000 |
| N#Cc1ccc(Oc2cccc(NC(=O)C3(C(=O)Nc4cccc(Oc5ccc(C#N)cc5)c4)CC3)c2)cc1 [compound 67, N, N′-bis(3-(4-cyanophenoxy)phenyl)cyclopropane-1,1-dicarboxamide] | 94.05 ± 16.11 % of control | > 10000 |
| Cc1ccc(NC(=O)C2(C(=O)O)CC2)cc1Oc1ccc(C#N)cc1 [compound 68] | 84.36 ± 11.31 % of control | > 10000 |
| N#Cc1ccc(Oc2cccc(NC(=O)C(=O)Nc3ccc(Cl)c(C(F)(F)F)c3)c2)cc1 [compound 69, N^1-(4-chloro-3-(trifluoromethyl)phenyl)-N^2-(3-(4-cyanophenoxy)phenyl) oxalamide] | 95.16 ± 6.91 % of control | > 10000 |
| N#CC1=CCC(OC2=CC(NC(=O)C(=O)Nc3cccc(Oc4ccc(C#N)cc4)c3)CC=C2)C=C1 (centres unmarked) [compound 70, N^1-(3-((4-cyanocyclohexa-2,4-dien-1-yl)oxy)cyclohexa-2,4-dien-1-yl)-N^2-(3-(4-cyanophenoxy)phenyl)oxalamide] | 91.23 ± 15.95 % of control | > 10000 |
| CC1=CCC(NC(=O)C(=O)Nc2ccc(C)c(Oc3ccc(C#N)cc3)c2)C=C1OC1C=CC(C#N)=CC1 (centres unmarked) [compound 71, N^1-(3-((4-cyanocyclohexa-2,4-dien-1-yl)oxy)-4-methylcyclohexa-2,4-dien-1-yl)-N^2-(3-(4-cyanophenoxy)-4-methylphenyl)oxalamide] | 87.54 ± 10.21 % of control | 210 |
| N#Cc1ccc(Oc2ccc3cccc(NC(=O)Nc4ccc(Cl)c(C(F)(F)F)c4)c3c2)cc1 [compound 72, 1-(4-chloro-3-(trifluoromethyl)phenyl)-3-(7-(4-cyanophenoxy)naphthalen-1-yl)urea] | 131.47 ± 14.99 % of control | 2250 |
| N#Cc1ccc(Oc2ccc3cccc(NC(=O)Nc4cccc5ccc(Oc6ccc(C#N)cc6)cc45)c3c2)cc1 [compound 73, 1,3-bis(7-(4-cyanophenoxy)naphthalen-1-yl)urea] | 102.24 ± 17.36 % of control | > 10000 |
| N#Cc1ccc(Oc2ccc3cccc(NC(=O)C4(C(=O)O)CC4)c3c2)cc1 [compound 75, 1-((7-(4-cyanophenoxy)naphthalen-1-yl)carbamoyl)cyclopropane carboxylic acid] | 111.30 ± 9.50 % of control | > 10000 |
| O=C(Nc1ccc(Cl)c(C(F)(F)F)c1)Nc1ccc(Cl)c(C(F)(F)F)c1 [compound 78, 1,3-bis(4-chloro-3-(trifluoromethyl)phenyl)urea] | 113.65 ± 13.93 % of control | > 10000 |
| N#Cc1ccc(Oc2cccc(NC(=O)Nc3ccc(Cl)c(C(F)(F)F)c3)c2)cc1Cl [compound 79, 1-(4-chloro-3-(trifluoromethyl)phenyl)-3-(3-(3-chloro-4-cyanophenoxy)phenyl)urea] | 112.25 ± 0.60 % of control | 820 |
| N#Cc1ccc(Oc2cccc(NC(=O)Nc3ccc(Cl)c(C(F)(F)F)c3)c2)c(F)c1 [compound 80, 1-(4-chloro-3-(trifluoromethyl)phenyl)-3-(3-(4-cyano-2-fluorophenoxy)phenyl) urea] | X91.93 ± 8.09 % of control | 1670 |
| Cc1ccc(NC(=O)Nc2ccc(C)c(Oc3ccc(C#N)c(Cl)c3)c2)cc1Oc1ccc(C#N)c(Cl)c1 [compound 82, 1,3-bis(3-(3-chloro-4-cyanophenoxy)-4-methylphenyl)urea] | 92.68 ± 5.66 % of control | 4140 |
| Cc1ccc(NC(=O)Nc2ccc(C)c(Oc3ccc(C#N)c(Br)c3)c2)cc1Oc1ccc(C#N)c(Br)c1 [compound 83, 1,3-bis(3-(3-bromo-4-cyanophenoxy)-4-methylphenyl)urea] | 110.68 ± 13.38 % of control | 250 |
| Cc1ccc(NC(=O)Nc2ccc(C)c(Oc3ccc(C#N)c(F)c3)c2)cc1Oc1ccc(C#N)c(F)c1 [compound 84, 1,3-bis(3-(4-cyano-3-fluorophenoxy)-4-methylphenyl)urea] | 108.62 ± 10.55 % of control | > 10000 |
| Cc1ccc(NC(=O)Nc2ccc(C)c(Oc3ccc(C#N)cc3F)c2)cc1Oc1ccc(C#N)cc1F [compound 85, 1,3-bis(3-(4-cyano-2-fluorophenoxy)-4-methylphenyl)urea] | 91.42 ± 10.47 % of control | > 10000 |
| Cc1ccc(NC(=O)Nc2ccc(C)c(Oc3ccc(C#N)nc3)c2)cc1Oc1ccc(C#N)nc1 [compound 86, 1,3-bis(3-((6-cyanopyridin-3-yl)oxy)-4-methylphenyl)urea] | 81.06 ± 7.61 % of control | > 10000 |
| Cc1ccc(NC(=O)Nc2ccc(Cl)c(C(F)(F)F)c2)cc1Oc1ccc(C#N)nc1 [compound 87, 1-(4-chloro-3-(trifluoromethyl)phenyl)-3-(3-((6-cyanopyridin-3-yl)oxy)-4-methylphenyl)urea] | 264.67 ± 32.11 % of control | 970 |
| Cc1ccc(NC(=O)Nc2ccc(Cl)c(C(F)(F)F)c2)cc1Oc1ccc(C#N)c(F)c1 [compound 88, 1-(4-chloro-3-(trifluoromethyl)phenyl)-3-(3-(4-cyano-3-fluorophenoxy)-4-methylphenyl)urea] | 100.48 ± 13.31 % of control | 1050 |
| Cc1ccc(NC(=O)Nc2ccc(Cl)c(C(F)(F)F)c2)cc1Oc1ccc(C#N)c(Br)c1 [compound 89, 1-(3-(3-bromo-4-cyanophenoxy)-4-methylphenyl)-3-(4-chloro-3-(trifluoromethyl)phenyl)urea] | 143.45 ± 15.17 % of control | 830 |
| Cc1cc(Oc2ccc(C#N)cc2)ccc1NC(=O)Nc1ccc(Oc2ccc(C#N)cc2)cc1C [compound 90, 1,3-bis(4-(4-cyanophenoxy)-2-methylphenyl)urea] | 95.78 ± 10.66 % of control | > 10000 |
| N#Cc1ccc(Oc2ccc(Cl)c(NC(=O)Nc3cc(Oc4ccc(C#N)cc4)ccc3Cl)c2)cc1 [compound 91, 1,3-bis(2-chloro-5-(4-cyanophenoxy)phenyl)urea] | 99.99 ± 4.52 % of control | > 10000 |
| N#Cc1ccc(Oc2cc(NC(=O)Nc3ccc(Cl)c(Oc4ccc(C#N)cc4)c3)ccc2Cl)cc1 [compound 92, 1,3-bis(4-chloro-3-(4-cyanophenoxy)phenyl)urea] | 252.27 ± 10.78 % of control | > 10000 |
| Cc1ccc(Oc2ccc(C#N)cc2)cc1NC(=O)Nc1cc(Oc2ccc(C#N)cc2)ccc1C [compound 93, 1,3-bis(5-(4-cyanophenoxy)-2-methylphenyl)urea] | 94.07 ± 0.82 % of control | > 10000 |

Reference: US10745346B2, “Agonists of protein tyrosine phosphatase SHP-1” (priority 2015, dated 2020)
